Where two headings read alike, the source gives them in different places. Where only a bound is given, the exact number is not on record here.

The test system of one series is K562 cell line. Also on record: method as in PMID 19837593. As to conditions: cited from earlier work.
Series [1] deals with MCF-7 cells. As to conditions: cited from earlier work.
For another series, the system named is hCA IX. Set-up: method as in PMID 29852328. As to conditions: cited from earlier work.
In series [2] the test system is CyclinB1 and CDK1 in MGC-803 cells. Briefly: Western blotting of cell proliferation related proteins. Format: cell-based, human. As to conditions: MGC-803, western blot, 24 h. How it is done:
(§1) Gastric cancer cells were seeded in dishes and treated with 13e or DMSO. After 48 h, MGC-803 cells were collected and then lysed. The denatured lysates of each groups were electrophoretic separated in SDS-PAGE. Proteins were then transferred onto PVDF membranes from gels. After blocking for 2 h, membranes were incubated with primary antibodies conjugation. Then, the membranes were washed and incubated with 2nd antibodies. At last, specific proteins were detected.
(§2) Figure 5 Compound 13e inhibited cell proliferation. (A,B) The colony formation of MGC-803 cells after the treatment with indicated concentrations of compound 13e for 7 days; (C) Cell proliferation related proteins in MGC-803 cells of compound 13e after the treatment with indicated concentrations of 13e for 24 h.

The test system of another series is HCT-116 cells. Briefly: MTT antiproliferative assay, HCT-116 cells. Format: cell-based, human. Conditions: Homo sapiens, HCT-116, exposure for 48 h. The procedure:
(§3) Cell lines used were cultured in humidified incubator at 37 °C and 5% CO2. The RPMI-1640 medium was supplemented with 10% fetal bovine serum, penicillin (100 U/mL) and streptomycin (0.1 mg/mL).
(§4) Cell lines were seeded into […] and incubated for 24 h. Then cells were treated with different concentrations of compounds. And after another 48 h, MTT reagent (20 μL per well) was added and then incubated at 37 °C for 4 h. Formazan was then dissolved with DMSO. Absorbencies of formazan solution were measured at […]. The IC50 values of tested compounds were calculated by SPSS version 17.0.

Series [3] concerns MGC-803 cells. Kind of series: MTT antiproliferative assay, MGC-803 cells. Format: cell-based, human. As to conditions: exposure for 48 h. How it is done:
as §3, §4

The test system of a further series is GES-1 cells. Kind of series: MTT antiproliferative assay, non-cancer GES-1 cells. Format: cell-based. How it is done:
as §3, §4
In general terms: Formazan colour is commonly taken as a measure of viable cells.

Series [4] has as its system MGC-803 cells. Kind of series: Growth curves of MGC-803 cells. Format: cell-based, human. As to conditions: MGC-803, after treatment for 72 h. The procedure:
Since gastric cancer cell line MGC-803 cells was more sensitive to compound 13e, MGC-803 cells were selected to do further study. The cell viabilities of MGC-803 cells after the treatment with different concentrations of compound 13e for 48 h were presented in Figure 4A, as the concentration rise, cell viability decreased obviously. […] The trends of cell growth were curved with results of cell viabilities after compound 13e treatment. […] We also tested the inhibition activity of compound 13e on normal gastric epithelial cell GES-1.
Figure 4 (A–C) MGC-803 cells inhibition activity of compound 13e […]. (A) Cell viabilities of MGC-803 cells, MGC-803 cells were treated with indicated concentrations of compound 13e for 48 h; (B) Growth curves of MGC-803 cells after the treatment with indicated concentrations of compound 13e for different hours. (C) Cell viabilities of MGC-803 cells and GES-1 cells, cells were treated with indicated concentrations of compound 13e for 48 h. The results shown were representative of three independent experiments.

For series [5], the system named is MCF-7 cells. Kind of series: MTT antiproliferative assay, MCF-7 cells. Format: cell-based, human. Conditions: Homo sapiens, MCF7, exposure for 48 h. The procedure: as §3, §4
Series [6] relates to apoptosis related proteins in MGC-803 cells. Kind of series: Western blotting of apoptosis related proteins. As to conditions: MGC-803, 1.5-6 μmol/L, 48 h. Format: cell-based, human. The procedure:
as §1
Figure 7 Compound 13e regulated apoptosis related proteins. (A,B) The expression of cell apoptosis related proteins were detected by western blotting. MGC-803 cells were incubated with various concentrations compound 13e (0 μmol/L, 1.5 μmol/L, 3 μmol/L, 6 μmol/L) for 48 h. Date are represented as mean ± SD of three independent experiments.
On the technique in general: In western blotting, separated proteins are transferred to a membrane and probed.

Series [7] relates to MGC-803 cells. Kind of series: Cell colony formation assay. Format: cell-based, human. How it is done:
To check the effect of compound 13e on cell proliferation, cell colony formatting assay was performed. […] Beside the activity on cell apoptosis, compound 13e inhibited cell proliferation of MGC-803 cells as well.
(§5) In this work, some other assays including colony formation assay and cell apoptosis assay were referred to our previous work.
as §2

The test system of series [8] is MGC-803 cells. Kind of series: DAPI fluorescent staining of cell nucleus. Format: cell-based, human. As to conditions: MGC-803, high dose treated group, 48 h. How it is done: Cells were seeded in 6-welled plate, then treated with different concentration of compounds for 48 h. The treated and untreated cells were washed with PBS buffer. Then fixed with 4% paraformaldehyde for 10 min in dark. After washed with PBS buffer, cells were stained by 2 μg/mL DAPI solution containing 0.1% triton X-100 for 30 min. Discard the solution and wash the cells with PBS buffer. Capture the images with a fluorescence microscope.
(§6) Figure 6 Compound 13e induced cell apoptosis. (A) Cell nucleus (upper panel) and morphology (lower panel) of compound 13e treated (48 h) or untreated MGC-803 cells; (B) Compound 13e induced apoptosis of MGC-803 cells. After incubated with compound 13e for 48 h, MGC-803 cells were detected by Annexin V/PI with flow cytometric analysis. The Q3 represents live cells, Q4 represents early/primary apoptotic cells, Q2 represents late/secondary apoptotic cells and Q1 represents cells necrosis. (C) The percentage of apoptosis (early and late apoptosis) cells increased dependently with various concentrations of compound 13e. Date are represented as mean ± SD of three independent experiments.

The subject of series [9] is MGC-803 cells. Kind of series: Annexin V/PI flow cytometry apoptosis assay. Format: cell-based, human. Conditions: MGC-803, 6 μmol/L, 48 h; control less than 10%. How it is done:
as §5, §6
Background: Flow cytometry measures light scatter and fluorescence of single cells or particles in a stream.

In the next series the test system is SKVO3 cells. Also on record: method as in PMID 27213819. As to conditions: cited from earlier work.
Another series has as its target VEGFR-2/KDR kinase. Also on record: method as in PMID 27777009. As to conditions: cited from earlier work.
A further series deals with PC-3 cells. Set-up: method as in PMID 27777009. As to conditions: cited from earlier work.
The test system of a further series is HepG2 cells. Also on record: method as in PMID 23471882. Conditions: cited from earlier work.

In general, IC50 refers to the concentration that gives 50% inhibition. Consider `COc1ccc(/C=C/C(=O)c2cc(OC)c(OC)c(OC)c2)cc1` [Compound 2, (E)-3-(4-methoxyphenyl)-1-(3,4,5-trimethoxyphenyl)prop-2-en-1-one], for which the concentration for half-maximal inhibition (IC50) in the series with K562 cell line is 4.5 µM.
With `O=C(/C=C/c1cn(S(=O)(=O)c2ccc(Cl)cc2Cl)c2ccccc12)c1ccncc1` [Compound 4], the IC50 in the series on MCF-7 cells [1] was 12.2 µM; in the series on hCA IX it was 130 nM.
Usually melting point stands for the temperature of the solid-liquid transition. Take `COc1cc(/C=C/C(=O)c2ccc(NC(=O)CCCCl)cc2)cc(OC)c1OC` [Compound 13e]: the melting point fell in the range of 170 to 171 °C. For the same molecule, in [2], the CDK1 protein level result is “down-regulated” and the CyclinB1 protein level result was “down-regulated”. The molecule further yielded an IC50 in the series with HCT-116 cells of 1830 ± 200 nM. Half-maximal inhibition with MGC-803 cells [3] (Homo sapiens, MGC-803, 48 h) (IC50) was put at 1540 nM. Besides, in the series with MGC-803 cells [3], it took 1520 ± 120 nM to reach half-maximal inhibition (IC50). In the series with GES-1 cells (A = IC50 (GES-1)/IC50 (MGC-803)), the “Fold Selectivity A” value worked out at 5.4 fold. The same molecule showed an IC50 in the series with GES-1 cells (Homo sapiens, GES1, non-cancer cell line, exposure for 48 h) of 8.22 µM. Also, the “Concentration range of selective inhibitory effect on cancer cells” value with GES-1 cells (MGC-803 versus GES-1, 48 h) is “below 2 μmol/L”. Further, in the series on GES-1 cells (cell viability, 48 h, Figure 4C), the “Inhibition activity on GES-1 compared with MGC-803” value is on record as “lower inhibition activity on GES-1 than gastric cancer cell MGC-803”. Further, in the series on MGC-803 cells [4], the “Dose from which cell growth is inhibited” value was ≥ 0.75 µmol/L. The molecule also returned an IC50 in the series on MCF-7 cells [5] of 2540 ± 180 nM. Also, in [6], the Bcl-2 expression entry was “down regulated”, the Caspase3/7 result is “cleaved (activated)”, the Caspase8 entry is listed as “cleaved (activated)” and the Caspase12 entry is reported as “cleaved (activated)”. Also, in series [6], the DR5 expression result is listed as “up regulated”, the Noxa expression result is listed as “up regulated”, the PARP result is “cleaved” and the XIAP expression entry is recorded as “decreased”. Moreover, in series [6], the c-IAP1 expression entry is recorded as “decreased” and the t-Bid result is “increase”. Further, the “Concentration at which colonies were evidently reduced” value with MGC-803 cells [7] (MGC-803, 7 days treatment, compared to control) is “greater than 0.5 μmol/L”. The “Colony formation of MGC-803 cells” value in the series with MGC-803 cells [7] (result in words) is “inhibited the colony formation”. For the same molecule, the “Cell nucleus morphology (DAPI)” value in the series with MGC-803 cells [8] is “concentrated and fragmented”. Besides, in the series with MGC-803 cells [9], the “Rate of apoptosis cells (early and late)” value is 86.7%.
Regarding `COc1ccc(N(C)c2cc(=O)oc3ccccc23)cc1NC(=O)CCCCl` [Compound 9], the IC50 in the series on SKVO3 cells is 3.5 nM.
Regarding `CNC(=O)c1cc(Oc2ccc(C(=O)/C=C/c3cc(OC)c(OC)c(OC)c3)cc2)ccn1` [Compound 5], the IC50 was 3.88 µM with MCF-7 cells [1], 720 nM at VEGFR-2/KDR kinase and 3.15 µM in the series on PC-3 cells.
For the molecule `COc1ccc(/C=C/C(=O)c2ccc(OC)c3c2OC(C)(C)C=C3)cc1` [Compound 3, millepachine], the half-inhibitory concentration (IC50) with HepG2 cells was 1510 nM.

The values are drawn from PMC7728372, “Synthesis and Biological Evaluation of Amino Chalcone Derivatives as Antiproliferative Agents” (Molecules, 2020).
